Experimental data taken from ChEMBL document CHEMBL5576130, “Non-Covalent Inhibitors of SARS-CoV-2 Papain-Like Protease (PLpro): In Vitro and In Vivo Antiviral Activity” (J Med Chem, 2024).
Active and inactive are the calls of the source. The rule behind the calls is not given here.

Experiments:
[1] = tested on: SARS-CoV-2; assay: Antiviral activity against SARS-CoV-2 Gamma (P.1) variant infected in human A549 cells harbouring ACE2 pretreated with compound for 1 hr followed by viral infection for 1 hrs and measured after 48 hrs by RT-qPCR analysis; assay type: functional, organism-based; settings: Severe acute respiratory syndrome coronavirus 2, time 50.0 hrs
[2] = tested on: SARS-CoV-2; assay: Antiviral activity against SARS-CoV-2 Delta (B.1.617.2) variant infected in human A549 cells harbouring ACE2 pretreated with compound for 1 hr followed by viral infection for 1 hrs and measured after 48 hrs by RT-qPCR analysis; assay type: functional, organism-based; settings: Severe acute respiratory syndrome coronavirus 2, time 50.0 hrs

## Cc1ccc(NC2CNC2)cc1C(=O)N[C@H](C)c1cccc(-c2ccc(CNC3CCCC3)s2)c1
[1]
  Activity: Active
[2]
  Activity: Active
